Experiments:
Pregnane X receptor = biological target: T1, Pregnane X receptor (Homo sapiens, UniProt O75469); assay: PXR CALUX; type: cell-based; conditions: 24 h exposure, lowest effect level PC10, means from 3 assay runs
T1 construct: host or cells: U-2 OS
T1 sequence (O75469 1-434): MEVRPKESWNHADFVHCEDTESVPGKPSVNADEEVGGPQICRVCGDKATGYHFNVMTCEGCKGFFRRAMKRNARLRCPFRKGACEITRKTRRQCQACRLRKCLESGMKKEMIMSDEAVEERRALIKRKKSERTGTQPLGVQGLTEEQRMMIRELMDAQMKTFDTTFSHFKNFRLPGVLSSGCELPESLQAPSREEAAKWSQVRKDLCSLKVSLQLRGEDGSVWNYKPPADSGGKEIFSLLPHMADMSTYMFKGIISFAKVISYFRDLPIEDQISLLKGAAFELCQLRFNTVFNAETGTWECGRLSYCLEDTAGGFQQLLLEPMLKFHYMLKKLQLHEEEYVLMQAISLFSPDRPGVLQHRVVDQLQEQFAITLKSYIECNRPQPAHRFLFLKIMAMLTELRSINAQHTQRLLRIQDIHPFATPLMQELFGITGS
Procedure: (§1) After 24 h, exposure medium was prepared. […] All samples were tested in triplicates. […] Fig. SM_4. […] Fig. SM_4.
(§2) Supplementary Material SM_4
(§3) Overview of CALUX assays.
(§4) This is defined as the concentration of test compound […]
(§5) for an antagonist assay is a PC20.
(§6) PC = positive control. FI = fold induction. PC10: concentration where test compound causes an activation equal to 10% of the maximum effect (positive control). PC20: concentration where test compound causes […]
(§7) FI=1.5: concentration where test
(§8) (A) exemplary graph of concentration- […]
(§9) receptor antagonism assay with PC20 as lowest-effect-level. (C) exemplary graph for assay with 1.5 fold inductionas lowest effect level. 9

[1] = tested on: p53-dependent pathway activation / genotoxicity; type: cell-based, human; conditions: 24 h exposure, lowest effect level FI=1.5, means from 3 assay runs
Procedure: as §1, §2, §3, §4, §5, §6, §7, §8, §9

U-2 OS cells = assay: Cytotox CALUX; conditions: for PoD cytotoxicity: 24 h exposure, lowest effect level PC20, means from 3 assay runs
[2] = set-up: method as in Hardman JG 2001; conditions: known Cmax in man; ref Hardman JG 2001; cited from earlier work
[3] = tested on: U-2 OS reporter cell lines battery; assay: CALUX reporter gene assay battery as a whole; conditions: all CALUX assays, 13 concentrations, 24 h exposure
[4] = pooled test systems of the NAM panel (all test methods)
Androgen receptor = biological target: T2, Androgen receptor (Homo sapiens, UniProt P10275); type: cell-based; conditions: 24 h exposure, lowest effect level PC20, reference agonist at EC50, means from 3 assay runs
T2 construct: host or cells: U-2 OS
T2 sequence (P10275 1-920): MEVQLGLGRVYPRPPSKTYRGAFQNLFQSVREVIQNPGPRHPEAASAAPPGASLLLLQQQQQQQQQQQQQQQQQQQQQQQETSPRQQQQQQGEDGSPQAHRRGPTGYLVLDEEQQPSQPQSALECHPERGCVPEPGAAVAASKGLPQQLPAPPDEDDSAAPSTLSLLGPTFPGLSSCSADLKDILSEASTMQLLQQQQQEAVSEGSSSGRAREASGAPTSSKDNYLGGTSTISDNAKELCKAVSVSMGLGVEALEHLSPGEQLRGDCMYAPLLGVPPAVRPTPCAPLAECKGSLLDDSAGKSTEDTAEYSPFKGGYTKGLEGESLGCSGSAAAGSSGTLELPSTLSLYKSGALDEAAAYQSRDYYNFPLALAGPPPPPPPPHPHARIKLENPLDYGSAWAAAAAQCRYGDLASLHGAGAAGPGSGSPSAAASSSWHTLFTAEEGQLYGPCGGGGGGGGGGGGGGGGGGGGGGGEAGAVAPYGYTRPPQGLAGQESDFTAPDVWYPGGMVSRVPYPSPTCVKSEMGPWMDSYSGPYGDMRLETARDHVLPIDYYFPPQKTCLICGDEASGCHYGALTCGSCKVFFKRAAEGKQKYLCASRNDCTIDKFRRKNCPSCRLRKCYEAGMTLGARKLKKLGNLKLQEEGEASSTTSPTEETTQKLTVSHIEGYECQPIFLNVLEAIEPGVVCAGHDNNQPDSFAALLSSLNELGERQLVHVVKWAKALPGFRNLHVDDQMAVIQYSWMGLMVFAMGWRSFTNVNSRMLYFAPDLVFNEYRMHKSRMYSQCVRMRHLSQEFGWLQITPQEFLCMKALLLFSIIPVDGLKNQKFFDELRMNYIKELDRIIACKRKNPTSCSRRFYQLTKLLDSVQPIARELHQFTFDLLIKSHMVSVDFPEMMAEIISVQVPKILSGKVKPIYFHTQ
Procedure: as §1, §2, §3, §4, §5, §6, §7, §8, §9

[5] = biological target: T3, Thyroid hormone receptor beta (Homo sapiens, UniProt P10828); assay: TRb-anti CALUX; type: cell-based; conditions: 24 h exposure, lowest effect level PC20, reference agonist at EC50, means from 3 assay runs
T3 construct: host or cells: U-2 OS
T3 sequence (P10828 1-461): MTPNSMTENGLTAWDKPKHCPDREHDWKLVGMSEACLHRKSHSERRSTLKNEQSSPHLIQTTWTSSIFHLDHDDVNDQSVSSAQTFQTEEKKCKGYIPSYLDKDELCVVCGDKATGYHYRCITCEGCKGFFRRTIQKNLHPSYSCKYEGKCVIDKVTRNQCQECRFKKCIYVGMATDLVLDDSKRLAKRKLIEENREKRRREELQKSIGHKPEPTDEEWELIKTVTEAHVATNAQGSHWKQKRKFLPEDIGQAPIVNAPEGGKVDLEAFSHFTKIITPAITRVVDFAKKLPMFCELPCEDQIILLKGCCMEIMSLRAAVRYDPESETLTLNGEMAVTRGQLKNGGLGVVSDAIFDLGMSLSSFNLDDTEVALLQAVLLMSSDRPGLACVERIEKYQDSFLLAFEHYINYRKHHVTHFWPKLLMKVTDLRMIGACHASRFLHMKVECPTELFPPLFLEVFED
Procedure: as §1
Cell line Endpoint effect Reference compound […]
Cytotox CALUX Cytoxicity PC20 tributyltinacetate
as §2, §3, §4, §5, §6, §7, §8, §9

Nrf2 (Oxidative stress) = assay: Nrf2 CALUX; type: cell-based, human; conditions: 24 h exposure, lowest effect level FI=1.5, means from 3 assay runs
Procedure: as §1, §2, §3, §4, §5, §6, §7, §8, §9

Progesterone receptor = biological target: T4, Progesterone receptor (Homo sapiens, UniProt P06401); assay: PR-anti CALUX; type: cell-based; conditions: 24 h exposure, lowest effect level PC20, reference agonist at EC50, means from 3 assay runs
T4 construct: host or cells: U-2 OS
T4 sequence (P06401 1-933): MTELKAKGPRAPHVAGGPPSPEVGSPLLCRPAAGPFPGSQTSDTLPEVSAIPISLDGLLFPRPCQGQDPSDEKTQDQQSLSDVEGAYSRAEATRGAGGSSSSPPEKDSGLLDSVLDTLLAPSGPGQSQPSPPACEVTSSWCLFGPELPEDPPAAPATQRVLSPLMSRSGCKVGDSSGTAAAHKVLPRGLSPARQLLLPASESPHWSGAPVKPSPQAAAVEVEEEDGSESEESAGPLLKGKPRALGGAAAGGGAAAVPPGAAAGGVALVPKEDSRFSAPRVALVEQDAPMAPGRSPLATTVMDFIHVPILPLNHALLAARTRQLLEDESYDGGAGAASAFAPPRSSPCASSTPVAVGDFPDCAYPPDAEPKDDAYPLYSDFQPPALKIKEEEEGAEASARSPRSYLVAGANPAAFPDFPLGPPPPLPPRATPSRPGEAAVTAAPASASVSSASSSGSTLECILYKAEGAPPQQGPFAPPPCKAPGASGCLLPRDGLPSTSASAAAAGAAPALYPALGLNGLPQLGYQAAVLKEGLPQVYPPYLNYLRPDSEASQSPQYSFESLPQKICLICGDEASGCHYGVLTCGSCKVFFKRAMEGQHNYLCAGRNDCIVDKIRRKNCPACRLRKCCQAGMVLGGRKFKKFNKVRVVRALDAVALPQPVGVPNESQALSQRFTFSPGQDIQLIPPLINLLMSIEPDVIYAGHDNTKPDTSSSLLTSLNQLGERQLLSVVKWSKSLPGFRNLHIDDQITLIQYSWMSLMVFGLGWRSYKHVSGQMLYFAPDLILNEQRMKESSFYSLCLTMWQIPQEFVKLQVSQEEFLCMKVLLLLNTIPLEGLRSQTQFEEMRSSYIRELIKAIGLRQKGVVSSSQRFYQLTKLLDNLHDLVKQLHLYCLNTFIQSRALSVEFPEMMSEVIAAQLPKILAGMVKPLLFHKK
Procedure: as §1, §2, §3, §4, §5, §6, §7, §8, §9

[6] = biological target: T5, Aryl Hydrocarbon receptor (Rattus norvegicus, UniProt P41738); assay: DR CALUX / AhR CALUX (rat hepatoma H-4-II-E cells); type: cell-based; conditions: 24 h exposure, lowest effect level PC10, means from 3 assay runs
T5 construct: host or cells: rat hepatoma H-4-II-E (ATCC CRL-1548)
T5 sequence (P41738 10-853): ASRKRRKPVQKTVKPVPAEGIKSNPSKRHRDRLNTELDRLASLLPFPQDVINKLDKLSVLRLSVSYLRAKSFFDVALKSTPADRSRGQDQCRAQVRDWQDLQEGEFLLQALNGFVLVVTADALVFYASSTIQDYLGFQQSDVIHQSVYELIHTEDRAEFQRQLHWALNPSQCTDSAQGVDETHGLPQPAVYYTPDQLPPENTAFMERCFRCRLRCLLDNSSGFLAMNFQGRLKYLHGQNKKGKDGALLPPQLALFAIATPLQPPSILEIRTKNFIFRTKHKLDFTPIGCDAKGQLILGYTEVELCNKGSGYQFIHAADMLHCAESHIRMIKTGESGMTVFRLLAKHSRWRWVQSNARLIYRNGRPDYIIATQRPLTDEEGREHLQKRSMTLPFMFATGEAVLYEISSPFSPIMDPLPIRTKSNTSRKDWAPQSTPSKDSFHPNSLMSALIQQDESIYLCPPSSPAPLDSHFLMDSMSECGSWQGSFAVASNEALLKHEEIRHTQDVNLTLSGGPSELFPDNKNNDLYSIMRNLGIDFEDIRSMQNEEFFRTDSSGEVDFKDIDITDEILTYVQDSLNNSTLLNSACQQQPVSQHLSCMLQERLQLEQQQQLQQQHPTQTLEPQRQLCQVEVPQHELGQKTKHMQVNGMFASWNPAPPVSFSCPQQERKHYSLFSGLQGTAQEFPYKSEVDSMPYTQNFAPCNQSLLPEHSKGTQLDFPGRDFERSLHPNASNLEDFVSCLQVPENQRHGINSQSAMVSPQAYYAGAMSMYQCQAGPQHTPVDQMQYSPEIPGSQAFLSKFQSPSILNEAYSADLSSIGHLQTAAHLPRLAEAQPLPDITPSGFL

SMILES	PoD PXR - ago (Pregnane X receptor)	PoD cytotoxicity (U-2 OS cells)	Cmax [2]	response profile over the CALUX battery (in words) [3]	viability [4]	other results
CNC(=O)Oc1cccc2ccccc12 [Carbaryl]	4.0 -log(M)	–	–	–	–	PoD p53 [1]: 3.8 -log(M)
COc1cc2c(c(OC)c1OC)-c1ccc(OC)c(=O)cc1[C@@H](NC(C)=O)CC2 [Colchicine]	–	7.3 -log(M)	449 µM	–	–	cytotoxic concentration (U-2 OS cells): 50 nM
Cc1noc(NS(=O)(=O)c2ccc(N)cc2)c1C [Sulfisoxazole]	–	–	464 µM	no effect	100%	–
CCCCNC(=O)NS(=O)(=O)c1ccc(C)cc1 [Tolbutamide]	–	–	196 µM	–	100%	–
Oc1c(Cl)cc(Cl)c(Cl)c1Cc1c(O)c(Cl)cc(Cl)c1Cl [Hexachlorophene]	–	5.5 -log(M)	–	only activated nuclear hormone receptor related assays	–	PoD AR - anta (Androgen receptor): 5.7 -log(M); PoD TRβ - anta [5]: 6.0 -log(M)
CC(C)(C)C(O)(CCc1ccc(Cl)cc1)Cn1cncn1 (stereo not shown) [Tebuconazole]	5.8 -log(M)	4.3 -log(M)	–	–	–	PoD Nrf2 (Nrf2 (Oxidative stress)): 4.2 -log(M); PoD PR - anta (Progesterone receptor): 5.6 -log(M); PoD AhR - ago [6]: 5.1 -log(M)

— paper PMC7367925, “The EU-ToxRisk method documentation, data processing and chemical testing pipeline for the regulatory use of new approach methods” (Archives of Toxicology, 2020)
